Series [1] has as its target human soluble guanylate cyclase alpha 1 and beta 1 subunits (sGC) (Homo sapiens (Human), UniProt Q02108+Q02153). Briefly: sGC cellular activator assay (cGMP, HTRF), in the presence and absence of 50% human serum. The class given is cell-based. The following applies: CHO cells stably expressing human sGC alpha 1/beta 1, preincubated with 40 microM ODQ; cGMP by HTRF; Table 2 does not state whether with or without 50% human serum. A digest of the protocol:
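First, CHO-sGC (human α1β1) cells get 1 h ODQ at 40 microM with IBMX and 0.1% BSA. Finally, cGMP is quantified by HTRF and EC50 computed.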
On the technique in general: TR-FRET usually uses a lanthanide donor and a delayed reading to cut background.

Series [2] can be described thus: Human liver microsome (HLM) metabolic stability assay. Type of series: in vitro ADME. As to conditions: human liver microsomes. A digest of the protocol: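 Remaining parent measured by LC/MS/MS (ESI, MRM) at 5, 15, 30 and 60 min relative to 0 min. Incubation: 1 uM compound, HLMs, NADPH-started, 37° C., 60 min total, single replicate. Slope of ln(% remaining) gives t1/2 = 0.693/slope, then CLint, CLh and % Qh.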

The nature of the next series: physchem. The following applies: kinetic from dmso stock.
[3] abbreviates: pH 2.2, aqueous buffer, Solubility (pH 2.2).
Setting [4] is: pH 4.5, aqueous buffer, Solubility (pH 4.5).
[5] abbreviates: pH 6.8, aqueous buffer, Solubility (pH 6.8).

Each structure is given as a SMILES string. In brackets after ≈: the same amount, converted by molar mass. Bounds are passed on as bounds.

The term EC50 denotes the concentration needed to bring the measured effect to its halfway point. A higher EC50 goes with weaker potency. The solubility is the concentration that dissolves in the medium under given conditions. A low value points to little dissolved substance.

Chain of human soluble guanylate cyclase alpha 1 and beta 1 subunits (sGC) (Q02108 whole entry partner): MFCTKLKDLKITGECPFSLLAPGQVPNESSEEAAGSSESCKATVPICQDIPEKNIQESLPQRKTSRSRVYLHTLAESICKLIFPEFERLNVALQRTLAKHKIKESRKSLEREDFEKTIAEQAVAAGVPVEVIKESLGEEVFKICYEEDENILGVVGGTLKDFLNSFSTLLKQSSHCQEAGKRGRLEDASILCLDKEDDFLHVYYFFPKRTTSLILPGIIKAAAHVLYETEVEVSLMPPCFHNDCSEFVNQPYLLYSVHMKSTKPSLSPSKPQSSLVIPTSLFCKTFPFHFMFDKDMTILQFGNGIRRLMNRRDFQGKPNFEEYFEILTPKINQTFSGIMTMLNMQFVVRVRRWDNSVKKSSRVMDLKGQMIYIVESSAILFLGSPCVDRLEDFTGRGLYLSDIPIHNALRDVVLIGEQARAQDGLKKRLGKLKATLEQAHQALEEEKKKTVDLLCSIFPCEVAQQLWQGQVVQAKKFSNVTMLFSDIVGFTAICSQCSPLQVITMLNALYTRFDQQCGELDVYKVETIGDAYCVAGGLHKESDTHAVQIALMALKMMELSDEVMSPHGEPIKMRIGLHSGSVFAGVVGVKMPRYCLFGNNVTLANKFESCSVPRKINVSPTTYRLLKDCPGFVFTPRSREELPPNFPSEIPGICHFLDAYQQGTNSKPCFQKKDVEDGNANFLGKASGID
Chain of human soluble guanylate cyclase alpha 1 and beta 1 subunits (sGC) (Q02153 whole entry): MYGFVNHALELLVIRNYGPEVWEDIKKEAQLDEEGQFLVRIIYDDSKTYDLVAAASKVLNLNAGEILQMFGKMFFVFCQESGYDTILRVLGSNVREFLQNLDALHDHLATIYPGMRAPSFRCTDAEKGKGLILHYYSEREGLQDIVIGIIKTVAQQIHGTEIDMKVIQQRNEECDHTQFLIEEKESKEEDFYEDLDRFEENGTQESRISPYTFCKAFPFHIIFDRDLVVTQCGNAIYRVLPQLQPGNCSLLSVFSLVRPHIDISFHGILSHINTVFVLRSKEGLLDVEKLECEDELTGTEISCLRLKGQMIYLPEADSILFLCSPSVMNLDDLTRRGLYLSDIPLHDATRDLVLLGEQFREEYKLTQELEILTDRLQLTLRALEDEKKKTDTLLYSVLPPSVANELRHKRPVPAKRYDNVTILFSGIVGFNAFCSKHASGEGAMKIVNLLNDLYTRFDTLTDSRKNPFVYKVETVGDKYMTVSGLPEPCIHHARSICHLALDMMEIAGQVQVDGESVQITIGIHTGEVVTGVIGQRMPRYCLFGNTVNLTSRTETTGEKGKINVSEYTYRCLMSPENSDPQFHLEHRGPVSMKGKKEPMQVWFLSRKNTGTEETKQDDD

The compound `COC[C@H]1N(c2cccc(-c3cccc(C)c3OCc3cc(C)c4c(c3)OCCN(C3CCOCC3)C4)n2)C[C@@H]2C[C@@]21C(=O)O` [Compound 314] showed an EC50 in series [1] of 529 nM. In addition, the “Metabolic stability (Qh %), % hepatic blood flow” value (“Metabolic stability (Qh %)” for short) in series [2] is under 24%. Also, the solubility at 24 h in the series “physchem” (setting [3]) came to 115 µg/mL (≈ 188 µM); in “physchem” (setting [4]) it was 110 µg/mL (≈ 179 µM); in the series “physchem” (setting [5]) it was 98.9 µg/mL (≈ 161 µM).

With `CCOC[C@H]1N(c2cccc(-c3cccc(C)c3OCc3cc(C)c4c(c3)CCN(C3CCOCC3)C4)n2)C[C@@H]2C[C@@]21C(=O)O` [Compound 315], in series [1], the EC50 was 18 nM. Moreover, the “Metabolic stability (Qh %)” value in series [2] is under 24%. The values for the solubility at 24 h in “physchem” (setting [3]), in the series “physchem” (setting [4]) and in “physchem” (setting [5]) were 137 µg/mL (≈ 224 µM), 135 µg/mL (≈ 221 µM) and 119 µg/mL (≈ 195 µM), respectively.

`CCOC[C@@H]1N(c2cccc(-c3cccc(C)c3OCc3cc(C)c4c(c3)CCN(C3CCOCC3)C4)n2)C[C@@H]2C[C@@]21C(=O)O` [Compound 316]: the midpoint of the response in series [1], the EC50, lay at 222 nM. Also, in series [2], the “Metabolic stability (Qh %)” value was determined as 39%. Further, the results for the solubility at 24 h in “physchem” (setting [3]), in “physchem” (setting [4]) and in the series “physchem” (setting [5]) were 147 µg/mL (≈ 240 µM), 149 µg/mL (≈ 243 µM) and 142 µg/mL (≈ 232 µM), respectively.

In series [1], `COC[C@H]1N(c2cccc(-c3cccc(C)c3OCc3cnc4c(c3)CCN(C3CCOCC3)CC4)n2)C[C@@H]2C[C@@]21C(=O)O` [Compound 317] displayed an EC50 of 245 nM. In addition, the “Metabolic stability (Qh %)” value in series [2] is under 24%. Further, the solubility at 24 h in the series “physchem” (setting [3]) stood at 158 µg/mL (≈ 263 µM); in “physchem” (setting [4]) it was 152 µg/mL (≈ 253 µM); in the series “physchem” (setting [5]) it was 139 µg/mL (≈ 232 µM).

As to `COC[C@H]1N(c2cccc(-c3cccc(C)c3OCc3ccc4c(n3)CCN(C3CCOCC3)C4)n2)C[C@@H]2C[C@@]21C(=O)O` [Compound 318], it took 739 nM to reach a half-maximal effect in series [1] (EC50). For the same compound, in series [2], the “Metabolic stability (Qh %)” value is recorded as under 24%. Besides, the solubility at 24 h came out at 151 µg/mL (≈ 258 µM) in “physchem” (setting [3]), 123 µg/mL (≈ 211 µM) in the series “physchem” (setting [4]) and 73.7 µg/mL (≈ 126 µM) in “physchem” (setting [5]).

In turn, `CO[C@H]1CN(c2nc(-c3cccc(Cl)c3OCc3ccc4c(c3)[C@@H](C)CN(C3CCOCC3)CC4)cs2)CC[C@H]1C(=O)O` [Compound 319] returned an EC50 in series [1] of 1 nM. In addition, the “Metabolic stability (Qh %)” value in series [2] came to 25%. The figures for the solubility at 24 h in the series “physchem” (setting [3]), in “physchem” (setting [4]) and in the series “physchem” (setting [5]) were 109 µg/mL (≈ 173 µM), 60.2 µg/mL (≈ 96.1 µM) and 55.4 µg/mL (≈ 88.5 µM), respectively.

In turn, `CO[C@H]1CN(c2nc(-c3cccc(Cl)c3OCc3ccc4c(c3)[C@H](C)CN(C3CCOCC3)CC4)cs2)CC[C@H]1C(=O)O` [Compound 320] showed an EC50 in series [1] of 4 nM. Further, in series [2], the “Metabolic stability (Qh %)” value amounted to 26%. For the same compound, the results for the solubility at 24 h in the series “physchem” (setting [3]), in “physchem” (setting [4]) and in the series “physchem” (setting [5]) were 115 µg/mL (≈ 184 µM), 60.6 µg/mL (≈ 96.8 µM) and 46.4 µg/mL (≈ 74.1 µM), respectively.

`CO[C@H]1CN(c2nc(-c3cccc(Cl)c3OCc3ccc4c(c3)[C@@H](C)CN(C3COC3)CC4)cs2)CC[C@H]1C(=O)O` [Compound 321] had an EC50 in series [1] of 3 nM. The “Metabolic stability (Qh %)” value in series [2] amounted to 47%. In addition, the solubility at 24 h in the series “physchem” (setting [3]) is 112 µg/mL (≈ 187 µM); in “physchem” (setting [4]) it was 41.5 µg/mL (≈ 69.4 µM); in “physchem” (setting [5]), 50.5 µg/mL (≈ 84.4 µM).

`CO[C@H]1CN(c2nc(-c3cccc(Cl)c3OCc3ccc4c(c3)[C@H](C)CN(C3COC3)CC4)cs2)CC[C@H]1C(=O)O` [Compound 322] displayed an EC50 in series [1] of 7 nM. For the same compound, the “Metabolic stability (Qh %)” value in series [2] amounted to 47%. Also, the figures for the solubility at 24 h in “physchem” (setting [3]), in “physchem” (setting [4]) and in “physchem” (setting [5]) were 110 µg/mL (≈ 184 µM), 36.4 µg/mL (≈ 60.9 µM) and 60.2 µg/mL (≈ 101 µM), respectively.

Compound `CO[C@H]1CN(c2nc(-c3cccc(C)c3OCc3ccc4c(c3)C(C)(C)CN(C3CCOCC3)CC4)cs2)CC[C@H]1C(=O)O` [Compound 323] showed an EC50 in series [1] of 2 nM. Moreover, the “Metabolic stability (Qh %)” value in series [2] is given as 45%. In addition, the solubility at 24 h in “physchem” (setting [3]) turned out to be 131 µg/mL (≈ 211 µM); in “physchem” (setting [4]) it was 84.3 µg/mL (≈ 136 µM); in “physchem” (setting [5]) it was 65.2 µg/mL (≈ 105 µM).

The compound `CO[C@@H]1CN(c2cccc(-c3cccc(C)c3OCc3ccc4c(c3)C(C)(C)CN(C3CCOCC3)CC4)n2)CC[C@@H]1C(=O)O` [Compound 324] came in with an EC50 in series [1] of 2 nM. In series [2], the “Metabolic stability (Qh %)” value is on record as under 24%. Moreover, the solubility at 24 h was determined as 134 µg/mL (≈ 218 µM) in the series “physchem” (setting [3]), 103 µg/mL (≈ 168 µM) in “physchem” (setting [4]) and 77.5 µg/mL (≈ 126 µM) in “physchem” (setting [5]).

For `CO[C@H]1CN(c2nc(-c3cccc(C)c3OCc3ccc4c(c3)[C@@H](C)CN(C3COC3)CC4)cs2)CC[C@H]1C(=O)O` [Compound 325], a half-maximal effect in series [1] (EC50) was put at 7 nM. Moreover, the “Metabolic stability (Qh %)” value in series [2] came out at 33%. Also, the solubility at 24 h was found to be 131 µg/mL (≈ 227 µM) in the series “physchem” (setting [3]), 69.1 µg/mL (≈ 120 µM) in “physchem” (setting [4]) and 67.4 µg/mL (≈ 117 µM) in the series “physchem” (setting [5]).

In turn, `CO[C@@H]1CN(c2cccc(-c3cccc(C)c3OCc3ccc4c(c3)C(C)(C)CN(C3COC3)CC4)n2)CC[C@@H]1C(=O)O` [Compound 326] showed an EC50 in series [1] of 1 nM. For the same compound, the “Metabolic stability (Qh %)” value in series [2] turned out to be 59%. In addition, the solubility at 24 h in “physchem” (setting [3]) turned out to be 129 µg/mL (≈ 220 µM); in the series “physchem” (setting [4]), 91.1 µg/mL (≈ 156 µM); in the series “physchem” (setting [5]), 71.6 µg/mL (≈ 122 µM).

The values above are taken from patent publication US9353090B2, “Heterocyclic carboxylic acids as activators of soluble guanylate cyclase” (Boehringer Ingelheim International GmbH, priority 2014, dated 2016).
